According to PMC12040169 (PLOS Biology, 2025):

Experiment: in vitro
Settings: human, hela cells, % viability

Q: With `Cc1c(C(=O)O)[nH]c2c1C(=O)CCC2` [CBK015548] as the compound, how does the viability at 28.5 h, 10 µM read?
A: 97.5%

Q: With `COc1ccc(C(=O)N(C)C)cc1OC` [CBK015550] as the compound, how does the viability at 28.5 h, 10 µM read?
A: 115%

Q: With `O=C(Nc1ccccc1)OC1CCCCC1` [CBK015569] as the compound, how does the viability at 28.5 h, 10 µM read?
A: 116%

Q: For `Cc1cc2ccccc2c(=O)n1CCO` [CBK015621], which viability at 28.5 h, 10 µM is on record?
A: 102%

Q: With `O=c1nc(O)c(I)cn1C1OC(CO)C(O)C1O` (stereo not shown) [CBK015625] as the compound, how does the viability at 28.5 h, 10 µM read?
A: 82.3%

Q: For `CN1CCCC1c1cccnc1` (stereo not shown) [CBK015659], which viability at 28.5 h, 10 µM is on record?
A: 94%

Q: Which viability at 28.5 h, 10 µM does the source give for `COc1ccc(O[C@@H]2CCCC[C@@H]2N2CCCCC2)cc1` [CBK015661C] here?
A: 90.6%

Q: With `CC(C)NC(=O)c1ccc(Cl)cc1` [CBK015665] as the compound, how does the viability at 28.5 h, 10 µM read?
A: 101%

Q: For `O=[N+]([O-])c1ccccc1S(=O)(=O)Nc1cc(C(F)(F)F)ccc1Cl` [CBK015721], which viability at 28.5 h, 10 µM is on record?
A: 93.3%

Q: With `COc1ccc2c(c1)CCC(c1ccccc1)=C2c1ccc(OCC(O)CN)cc1` (stereo not shown) [CBK015723C] as the compound, how does the viability at 28.5 h, 10 µM read?
A: 70.5%

Q: Which viability at 28.5 h, 10 µM does the source give for `N#Cc1ccc(N)c2ccccc12` [CBK015754] here?
A: 90.6%

Q: With `O=C1NCCc2c1[nH]c1ccc(Cl)cc21` [CBK015755] as the compound, how does the viability at 28.5 h, 10 µM read?
A: 38.9%

Q: For `CC(C)(C)O/N=C/c1cccnc1` [CBK015761C], which viability at 28.5 h, 10 µM is on record?
A: 109%

Q: With `O=C1NCCc2c1[nH]c1c(Cl)cccc21` [CBK015762] as the compound, how does the viability at 28.5 h, 10 µM read?
A: 78.2%

Q: With `Cc1ccccc1Oc1ccccc1NC(=O)CN1CCCCC1` [CBK015781C] as the compound, how does the viability at 28.5 h, 10 µM read?
A: 98.3%

Q: Which viability at 28.5 h, 10 µM does the source give for `CN(C)/N=C\c1cccc(O)c1` [CBK015814] here?
A: 95.2%

Q: With `CC1CCCC(C)N1CC(=O)Nc1ccccc1Oc1ccccc1` (stereo not shown) [CBK015824C] as the compound, how does the viability at 28.5 h, 10 µM read?
A: 119%

Q: Which viability at 28.5 h, 10 µM does the source give for `CCOC(=O)c1c(-c2ccccc2)csc1NS(=O)(=O)c1ccc(C)cc1` [CBK015841] here?
A: 95.1%

Q: For `Cc1cnoc1-c1cc(Cl)cc(Cl)c1O` [CBK015870], which viability at 28.5 h, 10 µM is on record?
A: 89.3%

Q: For `Cc1cc(OCCC#N)cc(C)c1Cl` [CBK015872], which viability at 28.5 h, 10 µM is on record?
A: 98.2%

Q: Which viability at 28.5 h, 10 µM does the source give for `CCN(CC)CCC(=O)c1ccc(Cl)cc1` [CBK015906C] here?
A: 101%

Q: For `CO[C@]1(c2cccc(C)c2)CC[C@@H](N2CCCCC2)CC1` [CBK015909G], which viability at 28.5 h, 10 µM is on record?
A: 83%

Q: With `CNCCCC1(c2ccccc2)SC(C)(C)c2ccccc21` (stereo not shown) [CBK015933C] as the compound, how does the viability at 28.5 h, 10 µM read?
A: 90.6%

Q: With `O=C(NCCc1ccccn1)c1ccc(Cl)cc1Cl` [CBK015946] as the compound, how does the viability at 28.5 h, 10 µM read?
A: 81.4%

Q: Which viability at 28.5 h, 10 µM does the source give for `Fc1ccc(C2CCc3n[nH]cc3C2)cc1` (stereo not shown) [CBK015957C] here?
A: 92%

Q: For `C/C(=N/NC(=O)C(C)CN1CCOCC1)c1ccc(Cl)cc1` (stereo not shown) [CBK016045], which viability at 28.5 h, 10 µM is on record?
A: 81.4%

Q: For `COc1ccc2c(c1)CC1(CCC(NCCCC(=O)c3ccc(F)cc3)CC1)C2` (stereo not shown) [CBK016054C], which viability at 28.5 h, 10 µM is on record?
A: 87.1%

Q: Which viability at 28.5 h, 10 µM does the source give for `CN(C)CCCn1nc2n(c1=O)-c1ccccc1SC(c1ccccc1)C2` (stereo not shown) [CBK016063] here?
A: 105%

Q: For `Cc1ccc(-c2ccn(C(C)C(=O)N(C)C)n2)cc1` (stereo not shown) [CBK016069], which viability at 28.5 h, 10 µM is on record?
A: 98.4%

Q: Which viability at 28.5 h, 10 µM does the source give for `S=C(NCC1CCN(C(=S)Nc2cccc3ccccc23)CC1)Nc1cccc2ccccc12` [CBK016070] here?
A: 107%

Q: Which viability at 28.5 h, 10 µM does the source give for `Cc1nnc2n1-c1ccc(Cl)cc1C(c1ccccc1)=NN2CCCC(=O)c1ccc(F)cc1` [CBK016076] here?
A: 86.6%

Q: Which viability at 28.5 h, 10 µM does the source give for `Cc1cn(C(C)C(=O)N(C)C)nc1C1CCCCC1` (stereo not shown) [CBK016092] here?
A: 113%

Q: Which viability at 28.5 h, 10 µM does the source give for `ON=C1CCC(c2ccccc2)CC1` (stereo not shown) [CBK016102] here?
A: 113%

Q: Which viability at 28.5 h, 10 µM does the source give for `CCCN(C(C)C(=O)N(C)C)S(=O)(=O)c1ccc(Cl)cc1` (stereo not shown) [CBK016123] here?
A: 96.8%

Q: For `O=C(O)c1ccc(-n2cccc2)cc1` [CBK016141], which viability at 28.5 h, 10 µM is on record?
A: 110%

Q: For `CC(Oc1cccc2ccccc12)C(=S)N(C)c1ccccc1` (stereo not shown) [CBK016158], which viability at 28.5 h, 10 µM is on record?
A: 88.2%

Q: Which viability at 28.5 h, 10 µM does the source give for `Cc1cc(Br)ccc1S(=O)(=O)N(C)c1ccc(N2CCNCC2)c2ccccc12` [CBK016170C] here?
A: 96%

Q: With `OCc1nc2cc3cn[nH]c3cc2[nH]1` [CBK016203] as the compound, how does the viability at 28.5 h, 10 µM read?
A: 86.5%

Q: With `OC(CN[C@H]1CC[C@](O)(c2ccc(Cl)cc2)CC1)c1ccccc1` (stereo partly shown) [CBK016206] as the compound, how does the viability at 28.5 h, 10 µM read?
A: 98.4%

Q: For `COc1ccc(C23CCCN(C)C2C[C@@H](O)CC3)cc1OC` (stereo partly shown) [CBK016226C], which viability at 28.5 h, 10 µM is on record?
A: 94.1%
